In paper PMC8584349 (International Journal of Molecular Sciences, 2021):

Columns and labels:
Conditions in all cases: 12 h
[1] = system: SARS-CoV-2 B.1.1.7 (Alpha) PsV
[2] = system: SARS-CoV-2 B.1.351 (Beta) PsV
[3] = system: SARS-CoV-2 B.1.617.2 (Delta) PsV
[4] = system: SARS-CoV-2 P.1 (Gamma) PsV

## CC[C@H](C)[C@H](NC(=O)[C@H](C)NC(=O)[C@H](CCC(=O)O)NC(=O)[C@H](CCC(=O)O)NC(=O)[C@H](CC(C)C)NC(=O)[C@H](CCCCN)NC(=O)[C@H](CCCCN)NC(=O)[C@H](CCSC)NC(=O)[C@H](CCC(=O)O)NC(=O)[C@H](Cc1ccc(O)cc1)NC(=O)[C@H](CCC(=O)O)NC(=O)[C@H](CC(C)C)NC(=O)[C@H](CC(=O)O)NC(=O)[C@H](CC(C)C)NC(=O)[C@H](Cc1ccccc1)NC(=O)[C@@H](NC(=O)[C@@H](NC(=O)[C@H](CC(N)=O)NC(=O)[C@@H](NC(=O)[C@H](CCC(N)=O)NC(=O)[C@H](CC(=O)O)NC(=O)[C@H](CC(C)C)NC(=O)[C@@H](N)CO)[C@@H](C)CC)C(C)C)[C@@H](C)O)C(=O)N[C@@H](CCCCN)C(=O)N[C@@H](CCCCN)C(=O)N[C@@H](CC(C)C)C(=O)N[C@@H](CCC(=O)O)C(=O)N[C@@H](CCC(=O)O)C(=O)N[C@@H](CO)C(=O)N[C@@H](Cc1ccc(O)cc1)C(=O)N[C@H](C(=O)N[C@@H](CC(=O)O)C(=O)N[C@@H](CC(C)C)C(=O)N[C@@H](CCCCN)C(=O)N[C@@H](CCC(=O)O)C(=O)N[C@@H](CC(C)C)C(=O)O)[C@@H](C)CC [EK1]
[1]
  IC50: 4610 nM
[2]
  IC50: 2290 nM
[3]
  IC50: 480 nM
[4]
  IC50: 1320 nM
